# Measurements published in patent US6380204B1, “Atropisomers of 3-heteroaryl-4(3H)-quinazolinones for the treatment of neurodegenerative and CNS-trauma related conditions” (Pfizer INC, priority 1997, dated 2002).
# Key:
# global ischemia = conditions: noncompetitive AMPA receptor antagonist; LaPeillet et al.; cited from earlier work
# [1] = test system: global and focal ischemic damage; conditions: competitive AMPA receptor antagonist; Sheardown et al., Buchan et al., LePeillet et al.; cited from earlier work
melting point,SMILES,also measured
,CC1=NN=C(c2ccc(N)cc2)c2cc3c(cc2C1)OCO3 [GKYI 52466],neuroprotection in rat global ischemia models (global ischemia): effective neuroprotective agent
151 to 153 °C,Cc1nc(CCc2nc3ccc(F)cc3c(=O)n2-c2cccnc2C)cs1,
145 to 146 °C,"CS(=O)(=O)O.Cc1nc(C=Cc2nc3ccc(F)cc3c(=O)n2-c2cccnc2C)cs1 (single isomer, unassigned)",
,"NS(=O)(=O)c1cccc2c1c([N+](=O)[O-])cc1nc(O)c(O)nc12 [NBQX, 2,3-dihydroxy-6-nitro-7-sulfamoylbenzo[f-]quinoxaline]",prevention of global and focal ischemic damage [1]: effective in preventing global and focal ischemic damage
